The text below walks through data of ChEMBL document CHEMBL1144969, “Structure-based design of thioether-bridged cyclic phosphopeptides binding to Grb2-SH2 domain” (Bioorg Med Chem Lett, 2003).

For orientation: IC50 means the concentration at which inhibition is half-maximal.

Molecules are shown by their SMILES. Starred links: 1 amine or outer side, 2 acyl side, 3 side chain; linkers in the order of their positions; H or OH if unused. Positions of bridges follow the written chain, without caps; N, C: chain ends. Non-standard residues stand in square brackets, D forms with d. Residues, ends and D or L forms follow the SMILES beside them. pY = N[C@@H](Cc1ccc(OP(=O)(O)O)cc1)C(=O)O; tBuAla = CC(C)(C)C[C@H](N)C(=O)O; X1 = O=C(C[*:2])NCCC(=O)[*:1]; hCys = N[C@@H](CCS)C(=O)O; Ac6c = NC1(C(=O)O)CCCCC1

In the test the target is Growth factor receptor-bound protein 2 (Homo sapiens, UniProt P62993). Put plainly: Inhibition of Growth factor receptor-bound protein 2 (Grb2) SH2 domain binding by ELISA. A general note: In an ELISA, binding on a coated surface is turned into a signal by an enzyme label.
Sequence of Growth factor receptor-bound protein 2 (P62993 whole entry, the tested form may be a part): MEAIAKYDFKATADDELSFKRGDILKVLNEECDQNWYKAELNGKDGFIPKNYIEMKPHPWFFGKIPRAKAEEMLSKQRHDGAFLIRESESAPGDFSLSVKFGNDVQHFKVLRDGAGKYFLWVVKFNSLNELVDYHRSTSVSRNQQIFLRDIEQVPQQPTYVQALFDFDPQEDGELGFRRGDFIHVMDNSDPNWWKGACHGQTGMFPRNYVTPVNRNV

Molecule `CSCC[C@@H]1NC(=O)CNC(=O)[C@H](C(C)C)NC(=O)[C@H](CC(N)=O)NC(=O)[C@H](CCC(=O)O)NC(=O)[C@H](Cc2ccc(OP(=O)(O)O)cc2)NC(=O)[C@H](CC(C)C)NC(=O)CCNC(=O)CSC[C@@H](C(N)=O)NC(=O)[C@H](Cc2ccc(O)cc2)NC1=O` (L[pY]ENVGMYC-NH2; linker N-9 via X1) came in with a 50% inhibitory concentration (IC50) of 8.26 nM.
For the molecule `CSCC[C@@H]1NC(=O)CNC(=O)[C@H](C(C)C)NC(=O)[C@H](CC(N)=O)NC(=O)C2(CCCCC2)NC(=O)[C@H](Cc2ccc(OP(=O)(O)O)cc2)NC(=O)[C@H](CC(C)C)NC(=O)CCNC(=O)CSC[C@@H](C(N)=O)NC(=O)[C@H](Cc2ccc(O)cc2)NC1=O` (L[pY][Ac6c]NVGMYC-NH2; linker N-9 via X1), the IC50 is 21 nM.
`CC(C)[C@@H]1NC(=O)[C@H](CC(N)=O)NC(=O)C2(CCCCC2)NC(=O)[C@H](Cc2ccc(OP(=O)(O)O)cc2)NC(=O)[C@H](Cc2ccccc2)NC(=O)[C@H](C)NC(=O)CSC[C@@H](C(N)=O)NC(=O)[C@H](Cc2ccc(O)cc2)NC(=O)[C@H](CC(C)(C)C)NC(=O)CNC1=O` ({CH2CO}-AF[pY][Ac6c]NVG[tBuAla]YC-NH2; thioether N-10) yielded an IC50 of 1.68 nM.
To `CSCC[C@@H]1NC(=O)CNC(=O)[C@H](C(C)C)NC(=O)[C@H](CC(N)=O)NC(=O)[C@H](CCC(=O)O)NC(=O)[C@H](Cc2ccc(OP(=O)(O)O)cc2)NC(=O)[C@H](CC(C)C)NC(=O)[C@H](C)NC(=O)CSC[C@@H](C(N)=O)NC(=O)[C@H](Cc2ccc(O)cc2)NC1=O` ({CH2CO}-AL[pY]ENVGMYC-NH2; thioether N-10) belongs 25.3 nM; to `CSCC[C@@H]1NC(=O)CNC(=O)[C@H](C(C)C)NC(=O)[C@H](CC(N)=O)NC(=O)[C@H](CCC(=O)O)NC(=O)[C@H](Cc2ccc(OP(=O)(O)O)cc2)NC(=O)[C@H](CC(C)C)NC(=O)[C@H](C)NC(=O)CSCC[C@@H](C(N)=O)NC(=O)[C@H](Cc2ccc(O)cc2)NC1=O` ({CH2CO}-AL[pY]ENVGMY[hCys]-NH2; thioether N-10), 54.7 nM; to `CC(C)C[C@@H]1NC(=O)[C@H](C)NC(=O)CSC[C@@H](C(N)=O)NC(=O)[C@H](Cc2ccc(O)cc2)NC(=O)[C@H](CC(C)(C)C)NC(=O)CNC(=O)[C@H](C(C)C)NC(=O)[C@H](CC(N)=O)NC(=O)[C@H](CCC(=O)O)NC(=O)[C@H](Cc2ccc(OP(=O)(O)O)cc2)NC1=O` ({CH2CO}-AL[pY]ENVG[tBuAla]YC-NH2; thioether N-10), 14.5 nM.
For `CC(C)C[C@@H]1NC(=O)[C@H](C)NC(=O)CSC[C@@H](C(N)=O)NC(=O)[C@H](Cc2ccc(O)cc2)NC(=O)[C@H](C)NC(=O)CNC(=O)[C@H](C(C)C)NC(=O)[C@H](CC(N)=O)NC(=O)C2(CCCCC2)NC(=O)[C@H](Cc2ccc(OP(=O)(O)O)cc2)NC1=O` ({CH2CO}-AL[pY][Ac6c]NVGAYC-NH2; thioether N-10) the value was 13.3 nM; for `CSCC[C@@H]1NC(=O)CNC(=O)[C@H](C(C)C)NC(=O)[C@H](CC(N)=O)NC(=O)C2(CCCCC2)NC(=O)[C@H](Cc2ccc(OP(=O)(O)O)cc2)NC(=O)[C@H](CC(C)C)NC(=O)[C@H](C)NC(=O)CSC[C@@H](C(N)=O)NC(=O)[C@H](Cc2ccc(O)cc2)NC1=O` ({CH2CO}-AL[pY][Ac6c]NVGMYC-NH2; thioether N-10), 3.77 nM; for `CSCC[C@@H]1NC(=O)CNC(=O)[C@H](C(C)C)NC(=O)[C@H](CC(N)=O)NC(=O)[C@H](CCC(=O)O)NC(=O)[C@H](Cc2ccc(OP(=O)(O)O)cc2)NC(=O)[C@H](CC(C)C)NC(=O)[C@H](CCC(=O)O)NC(=O)CSC[C@@H](C(N)=O)NC(=O)[C@H](Cc2ccc(O)cc2)NC1=O` ({CH2CO}-EL[pY]ENVGMYC-NH2; thioether N-10), 137 nM.
In turn, `CSCC[C@@H]1NC(=O)CNC(=O)[C@H](C(C)C)NC(=O)[C@H](CC(N)=O)NC(=O)[C@H](CCC(=O)O)NC(=O)[C@H](Cc2ccc(OP(=O)(O)O)cc2)NC(=O)[C@H](CC(C)C)NC(=O)CNC(=O)CSC[C@@H](C(N)=O)NC(=O)[C@H](Cc2ccc(O)cc2)NC1=O` ({CH2CO}-GL[pY]ENVGMYC-NH2; thioether N-10) had an IC50 of 31.5 nM.
On to `CSCC[C@@H]1NC(=O)CNC(=O)[C@H](C(C)C)NC(=O)[C@H](CC(N)=O)NC(=O)[C@H](CCC(=O)O)NC(=O)[C@H](Cc2ccc(OP(=O)(O)O)cc2)NC(=O)[C@H](CC(C)C)NC(=O)[C@@H]2CCCN2C(=O)CSC[C@@H](C(N)=O)NC(=O)[C@H](Cc2ccc(O)cc2)NC1=O` ({CH2CO}-PL[pY]ENVGMYC-NH2; thioether N-10), for which the 50% inhibitory concentration (IC50) was 75.7 nM.
As for `CC(C)C[C@@H]1NC(=O)[C@@H]2CCCN2C(=O)CSC[C@@H](C(N)=O)NC(=O)[C@H](Cc2ccc(O)cc2)NC(=O)[C@H](CC(C)(C)C)NC(=O)CNC(=O)[C@H](C(C)C)NC(=O)[C@H](CC(N)=O)NC(=O)C2(CCCCC2)NC(=O)[C@H](Cc2ccc(OP(=O)(O)O)cc2)NC1=O` ({CH2CO}-PL[pY][Ac6c]NVG[tBuAla]YC-NH2; thioether N-10), the IC50 turned out to be 7.65 nM. Compared with the last molecule, the IC50 is about 9.9-fold lower.
